What was measured:
Format in all cases: biochemical
kinase Axl = molecular target: T1, kinase Axl (Homo sapiens, UniProt P30530); experiment: Mobility shift assay, inhibitory activity against kinase Axl; settings: ATP at Km (81 μM), average of two independent experiments
T1 construct: purchased Carna 08-107
T1 sequence (P30530 473-894 limits assumed): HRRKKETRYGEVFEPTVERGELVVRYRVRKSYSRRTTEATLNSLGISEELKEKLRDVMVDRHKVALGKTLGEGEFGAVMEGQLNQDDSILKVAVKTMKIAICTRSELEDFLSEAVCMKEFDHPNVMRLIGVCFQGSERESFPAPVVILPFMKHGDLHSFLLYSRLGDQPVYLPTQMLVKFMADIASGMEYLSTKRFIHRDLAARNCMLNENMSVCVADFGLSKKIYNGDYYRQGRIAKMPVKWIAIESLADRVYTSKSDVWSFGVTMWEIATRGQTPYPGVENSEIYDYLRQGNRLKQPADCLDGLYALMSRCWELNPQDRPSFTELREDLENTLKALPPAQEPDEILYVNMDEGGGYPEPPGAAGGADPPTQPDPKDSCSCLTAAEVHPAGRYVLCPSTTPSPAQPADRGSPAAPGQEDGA
Description: (§1) In this test, mobility shift assay was used to test the inhibitory activity of compounds when ATP concentrations correspond to the Km of the kinases.
(§2) The concentration of test compound was 10-fold diluted from an initial concentration of 10 μM. The test result (IC50) was the average of two independent experiments.
(§3) For example, a compound at an initial concentration of 10 μM was adjusted to 500 μM with 100% DMSO, then serially diluted for 10 concentrations, and then subjected to 10-fold dilution with the buffer to prepare a diluted compound intermediate containing 10% DMSO, 5 μL of which was transferred to the 384-well plate.
(§4) 10 μL of the two enzyme solutions each was added to the 384-well plate and co-incubated with the compound for 10-15 min at room temperature.
(§5) 10 μL of the diluted substrate was added to the 384-well plate to initiate the reaction, which lasts for 1 h at 28° C.
(§6) 5) The conversion rate was read by Caliper Reader (Perkin Elmer) and the inhibition rate was calculated as the average of two tests.
(§7) 6) IC50 values were fitted with XL-fit software.

kinase c-MET = molecular target: T2, kinase c-MET (Homo sapiens, UniProt P08581); experiment: Mobility shift assay, inhibitory activity against kinase c-MET; settings: ATP at Km (35 μM), average of two independent experiments
T2 construct: purchased Carna 08-151
T2 sequence (P08581 956-1390 limits assumed): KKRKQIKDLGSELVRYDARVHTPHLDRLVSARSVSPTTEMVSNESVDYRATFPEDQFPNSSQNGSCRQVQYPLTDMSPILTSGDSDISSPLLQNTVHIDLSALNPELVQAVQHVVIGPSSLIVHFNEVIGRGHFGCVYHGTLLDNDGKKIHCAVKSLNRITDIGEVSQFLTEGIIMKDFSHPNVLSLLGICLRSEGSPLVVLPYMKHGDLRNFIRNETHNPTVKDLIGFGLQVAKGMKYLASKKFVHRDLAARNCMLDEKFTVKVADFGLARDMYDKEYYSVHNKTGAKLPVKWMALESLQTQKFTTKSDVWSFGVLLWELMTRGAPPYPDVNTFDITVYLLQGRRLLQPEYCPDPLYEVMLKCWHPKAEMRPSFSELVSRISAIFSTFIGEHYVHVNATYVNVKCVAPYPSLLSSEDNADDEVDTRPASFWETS
Description: as §1, §2, §3, §4, §5, §6, §7

tyrosine kinase Mer = molecular target: T3, tyrosine kinase Mer (Homo sapiens, UniProt Q12866); experiment: HTRF assay, inhibitory activity against tyrosine kinase Mer; settings: ATP at Km (30 μM), two duplicate wells
T3 construct: purchased Carna 08-108
T3 sequence (Q12866 528-999 limits assumed): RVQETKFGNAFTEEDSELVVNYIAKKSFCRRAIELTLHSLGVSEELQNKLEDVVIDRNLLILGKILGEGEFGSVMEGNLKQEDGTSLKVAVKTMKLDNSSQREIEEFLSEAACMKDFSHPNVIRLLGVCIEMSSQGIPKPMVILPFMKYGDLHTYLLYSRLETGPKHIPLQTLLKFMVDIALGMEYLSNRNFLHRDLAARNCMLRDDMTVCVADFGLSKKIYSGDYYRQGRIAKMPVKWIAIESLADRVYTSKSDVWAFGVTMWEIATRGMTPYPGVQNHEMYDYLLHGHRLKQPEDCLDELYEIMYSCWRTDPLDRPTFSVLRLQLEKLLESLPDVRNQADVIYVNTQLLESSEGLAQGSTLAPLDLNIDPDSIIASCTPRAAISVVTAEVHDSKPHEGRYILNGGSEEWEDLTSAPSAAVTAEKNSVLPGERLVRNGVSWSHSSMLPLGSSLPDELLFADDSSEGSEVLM
Description: (§8) Test Example 2: Evaluation of Inhibitory Activity (IC50) of Compounds disclosed herein against Tyrosine Kinases Mer and Tyro3
(§9) In this test, HTRF method was used to test the inhibitory activity of compounds when ATP concentrations correspond to the Km of the kinases. The control substance was RXDX-106. The concentration of test compound was 3-fold diluted from an initial concentration of 10 μM, and two duplicate wells were set.
(§10) Kinase Mer (Carna, Cat. No. 08-108, Lot. No. 14CBS-0421H); Tyro3 (Carna, Cat. No. 08-109, Lot. No. 08CBS-1186H); HTRF kinase-TK kit (Cisbio, Cat. No. 62TK0PEC), the kit comprising: biotin-TK substrate lyophilized powder (Cisbio, Cat. No. 61TK0BLC, Lot. No. 07A), streptavidin-XL665 (Cisbio, Cat. No. 610SAXLG, Lot. No. 126A), TK antibody-cryptate (Cisbio, Cat. No. 610SAXLG, Lot. No. 04A), and detection buffer (including EDTA) (Cisbio, Cat. No. 62TK0PEC, Lot. No. 12A); ATP (Sigma, Cat. No. A7699-5G, CAS No. 34369-07-8, Lot. No. SLBQ6014V); DMSO (Sigma, Cat. No. D5879-1L, Lot. No. SHBH9944); HEPES (Sigma, Cat. No. V900477-500G, CAS No. 7365-45-9, Lot. No. WXBC4716V); MgCl2 (Sigma, Cat. No. 208337-1KG, Lot. No. MKBX9508V); EGTA (Sigma, Cat. No. E3889-100g, CAS 67-42-5, […], Lot. No. SLBG8546V); NP-40 (Beijing Dingguo, Cat. No. DH218, Lot. No. 36R00160); DTT (Sigma, Cat. No. D0632-25g, CAS No. 3483-12-3, Lot. No. SLBF3964V); compound plate (Labcyte, Cat. No. LP0200, Lot. No. 0006386836); assay plate (Greiner, Cat. No. 784075, Lot. No. E16123HM); control substance RXDX-106 (prepared according to the method disclosed in patent WO2013074633).
(§11) 1) Preparation of a buffer: 50 mM HEPES, 10 mM MgCl2, 1 mM EGTA, 0.01% NP-40, 2 mM DTT.
(§12) 2) Preparation of control substance and test samples: RXDX-106 and the compounds disclosed herein were each dissolved in DMSO to 10 mM and then diluted to 1 mM or an appropriate concentration with DMSO, and then serial double dilution was performed using BRAVO (Agilent). 100 nL of each was transferred from a compound plate (Labcyte-LP0200) to an assay plate (Greiner-784075) using ECHO 555 (Labcyte). The final concentration of DMSO was 1%.
(§13) 3) Mer and Tyro3 were each diluted to 0.5 nM and 1.2 nM with the detection buffer (Cisbio, Cat. No. 62TK0PEC, Lot. No. 12A). 5 μL of each was added to a 384-well plate and incubated with the compounds disclosed herein for 30 min at 22-25° C. Final concentrations of Mer and Tyro3 were 0.25 nM and 0.6 nM, respectively.
(§14) 4) Biotin-TK substrate and ATP were each diluted to a concentration twice the final concentration with 1× kinase buffer made up of HEPES, NaN3, BSA and orthovanadate. 5 μL of the mixture of substrate and ATP was added to the 384-well plate to initiate the reaction, which lasts for 1 h at 22-25° C.
(§15) 5) Streptavidin-XL665 and TK antibody-cryptate were diluted to 250 nM and 0.5 nM, respectively, with the detection buffer. […] of each of the two solutions was added to the 384-well plate to initiate the reaction, which lasts for 1 h at 22-25° C. The final concentrations of streptavidin-XL665 and TK antibody-cryptate were 125 nM and 0.25 nM, respectively.
(§16) 6) The fluorescence intensities at 665 nm and 615 nm were read with an Envision Reader (PerkinElmer) .
(§17) 7) IC50 values of the compounds were fitted with XL-fit software.

tyrosine kinase Tyro3 = molecular target: T4, tyrosine kinase Tyro3 (Homo sapiens, UniProt Q06418); experiment: HTRF assay, inhibitory activity against tyrosine kinase Tyro3; settings: ATP at Km (50 μM), two duplicate wells
T4 construct: purchased Carna 08-109
T4 sequence (Q06418 453-890 limits assumed): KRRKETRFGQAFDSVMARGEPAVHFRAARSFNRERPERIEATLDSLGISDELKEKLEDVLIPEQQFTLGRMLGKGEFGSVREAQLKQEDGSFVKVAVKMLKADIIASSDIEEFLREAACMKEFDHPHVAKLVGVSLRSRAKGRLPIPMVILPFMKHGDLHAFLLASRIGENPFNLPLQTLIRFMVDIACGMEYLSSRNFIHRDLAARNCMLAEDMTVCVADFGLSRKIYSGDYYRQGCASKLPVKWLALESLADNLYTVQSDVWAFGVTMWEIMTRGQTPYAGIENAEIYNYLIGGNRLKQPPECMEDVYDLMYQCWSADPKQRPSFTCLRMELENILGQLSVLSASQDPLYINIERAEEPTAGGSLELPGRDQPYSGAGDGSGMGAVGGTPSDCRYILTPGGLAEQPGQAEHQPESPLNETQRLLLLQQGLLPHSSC
Description: as §8, §9, §10, §11, §12, §13, §14, §15, §16, §17

Row | IC50 (kinase Axl) [nM] | IC50 (kinase c-MET) [nM] | IC50 (tyrosine kinase Mer) [nM] | IC50 (tyrosine kinase Tyro3) [nM] | Compound
1 | 13 | 133 | 4.9 | 7.51 | COc1ccc(-c2cnc(N)c(-c3ccc(NC(=O)c4cn(C(C)C)c(C#N)c(-c5ccc(F)cc5)c4=O)cc3F)c2)cc1OC [Example 1, N-(4-(2-amino-5-(3,4-dimethoxyphenyl)pyridin-3-yl)-3-fluoro-phenyl)-6-cyano-5-(4-fluorophenyl)-1-isopropyl-4-oxo-1,4-dihydropyridine-3-carboxamide]
2 | 4.6 | 70 | 1.3 | 3 | CCn1cc(-c2cnc(N)c(-c3ccc(NC(=O)c4cn(C5CCC5)c(C#N)c(-c5ccc(F)cc5)c4=O)cc3F)c2)cn1 [Example 9, N-(4-(2-amino-5-(1-ethyl-1H-pyrazol-4-yl)pyridin-3-yl)-3-fluoro-phenyl)-6-cyano-5-(4-fluorophenyl)-1-cyclobutyl-4-oxo-1,4-dihydropyridine-3-carboxamide]
3 |  |  | 6.4 | 3.3 | COc1cc2nccc(Oc3ccc(NC(=O)c4cn(C(C)C)c(=O)n(-c5ccc(F)cc5)c4=O)cc3F)c2cc1OC [RXDX-106, reference compound]

Reference: patent publication US20210355107A1, “MULTI-SUBSTITUTED PYRIDONE DERIVATIVES AND MEDICAL USE THEREOF” (Beijing Yuezhikangtai Biomedicines Co., Ltd., priority 2018, published 2021)
